Assay results as given in BindingDB's records for doi:10.1021/acsmedchemlett.0c00340 (California Institute of Technology, 2020).

Assay: Positive allosteric modulator activity at human alpha1beta2S GABA-A receptor expressed in Xenopus laevis oocytes assessed as change in GABA EC50 at 40 uM by two electrode voltage-clamp assay

SMILES	EC50 [µM]
CN1CC[C@]2(O)c3ccccc3N(C)[C@]12c1ccccc1	13
CN1CC[C@]2(O)c3cc(I)ccc3N(C)[C@]12c1ccccc1	9
CN1CC[C@]2(O)c3cc(Br)ccc3N(C)[C@]12c1ccccc1	16
